According to the supplement of paper PMC11451515:

Columns and labels:
Conditions in all cases: 48 h
[1] = test system: NOMO1; experiment: cell viability relative to DMSO control; higher = less cytotoxic
In short: (§1)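 NOMO1 or SEM cells were plated at 500 cells/well and P12-Ichikawa cells at 1000 cells/well in 1536-well plates (5 μl), after each leukemia line had been adapted for at least four passages in each medium. Pin dosing delivered library compounds in DMSO at 11 threefold concentrations, 47 μM to 0.79 nM. CellTiter-Glo One luminescence was read after 48 h at 37°C. Viability is reported as a per-plate percentage of DMSO wells, with cell-free wells as background.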

[2] = test system: P12-Ichikawa; experiment: as above
In short: as §1

[3] = test system: SEM cells; experiment: as above
In short: as §1

[4] = test system: NOMO1; experiment: AUC of viability dose-response curve (% viability x log10 dose units); higher = less sensitive
In short: (§2)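 Leukemia cells adapted to each medium (500 or 1000 cells/well, 1536-well plates) were exposed to library compounds in DMSO for 48 h at 37°C at 11 threefold doses, 47 μM to 0.79 nM. Luminescence by CellTiter-Glo One was normalised per plate to DMSO and cell-free wells, then fitted with a four-parameter log-logistic curve on log10 dose. Curves above full viability were scaled and quality-control failures removed before area under the curve was integrated by trapezoidal rule.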

[5] = test system: P12-Ichikawa; experiment: as above
In short: as §2

[6] = test system: SEM cells; experiment: as above
In short: as §2

[7] = HPLM + 10% dialyzed FBS, 0.000781 µM
[8] = HPLM + 10% dialyzed FBS, 0.00234 µM
[9] = HPLM + 10% dialyzed FBS, 0.00702 µM
[10] = HPLM + 10% dialyzed FBS, 0.0211 µM
[11] = HPLM + 10% dialyzed FBS, 0.0632 µM
[12] = HPLM + 10% dialyzed FBS, 0.19 µM
[13] = HPLM + 10% dialyzed FBS, 0.569 µM
[14] = HPLM + 10% dialyzed FBS, 1.71 µM
[15] = HPLM + 10% dialyzed FBS, 5.12 µM
[16] = HPLM + 10% dialyzed FBS, 15.4 µM
[17] = HPLM + 10% dialyzed FBS, 46.1 µM
[18] = RPMI 5 mM glucose + 10% FBS, 0.000781 µM
[19] = RPMI 5 mM glucose + 10% FBS, 0.00234 µM
[20] = RPMI 5 mM glucose + 10% FBS, 0.00702 µM
[21] = RPMI 5 mM glucose + 10% FBS, 0.0211 µM
[22] = RPMI 5 mM glucose + 10% FBS, 0.0632 µM
[23] = RPMI 5 mM glucose + 10% FBS, 0.19 µM
[24] = RPMI 5 mM glucose + 10% FBS, 0.569 µM
[25] = RPMI 5 mM glucose + 10% FBS, 1.71 µM
[26] = RPMI 5 mM glucose + 10% FBS, 5.12 µM
[27] = RPMI 5 mM glucose + 10% FBS, 15.4 µM
[28] = RPMI 5 mM glucose + 10% FBS, 46.1 µM
[29] = RPMI 5 mM glucose + 10% dialyzed FBS, 0.000781 µM
[30] = RPMI 5 mM glucose + 10% dialyzed FBS, 0.00234 µM
[31] = RPMI 5 mM glucose + 10% dialyzed FBS, 0.00702 µM
[32] = RPMI 5 mM glucose + 10% dialyzed FBS, 0.0211 µM
[33] = RPMI 5 mM glucose + 10% dialyzed FBS, 0.0632 µM
[34] = RPMI 5 mM glucose + 10% dialyzed FBS, 0.19 µM
[35] = RPMI 5 mM glucose + 10% dialyzed FBS, 0.569 µM
[36] = RPMI 5 mM glucose + 10% dialyzed FBS, 1.71 µM
[37] = RPMI 5 mM glucose + 10% dialyzed FBS, 5.12 µM
[38] = RPMI 5 mM glucose + 10% dialyzed FBS, 15.4 µM
[39] = RPMI 5 mM glucose + 10% dialyzed FBS, 46.1 µM
[40] = RPMI 5 mM glucose + 10% dialyzed FBS

For `C[C@]\12CC[C@H](O)CC1=C/CC3C2CC[C@@]\4(C)C3C\C=C4[N]5C=NC6=C5C=CC=C6` (stereo partly drawn), the cell viability [1, 7] was 95.5%, the cell viability [1, 8] was 110% and the cell viability [1, 9] was 99.5%. It also gave a cell viability [1, 10] of 96.7%, a cell viability [1, 11] of 105% and a cell viability [1, 12] of 115%. For the same compound, the cell viability [1, 13] was 117%, the cell viability [1, 14] was 102% and the cell viability [1, 15] was 97%. It also gave a cell viability [1, 16] of 116%, a cell viability [1, 17] of 110% and a cell viability [1, 18] of 96.4%. For the same compound, the cell viability [1, 19] was 99%, the cell viability [1, 20] was 100% and the cell viability [1, 21] was 103%. It also gave a cell viability [1, 22] of 112%, a cell viability [1, 23] of 109% and a cell viability [1, 24] of 117%. For the same compound, the cell viability [1, 25] was 101%, the cell viability [1, 26] was 99.2% and the cell viability [1, 27] was 125%. For the same compound, the cell viability [1, 28] was 100%, the cell viability [1, 29] was 84.8% and the cell viability [1, 30] was 101%. For the same compound, the cell viability [1, 31] was 97.3%, the cell viability [1, 32] was 124% and the cell viability [1, 33] was 110%. It also gave a cell viability [1, 34] of 122%, a cell viability [1, 35] of 117% and a cell viability [1, 36] of 113%. The cell viability [1, 37] was 104%, the cell viability [1, 38] was 105% and the cell viability [1, 39] was 112%. The cell viability [2, 7] was 94.2%, the cell viability [2, 8] was 95.5% and the cell viability [2, 9] was 102%. The cell viability [2, 10] was 106%, the cell viability [2, 11] was 103% and the cell viability [2, 12] was 105%. For the same compound, the cell viability [2, 13] was 105%, the cell viability [2, 14] was 104% and the cell viability [2, 15] was 107%. It also gave a cell viability [2, 16] of 106%, a cell viability [2, 17] of 107% and a cell viability [2, 18] of 82.9%. The cell viability [2, 19] was 94.2%, the cell viability [2, 20] was 93.8% and the cell viability [2, 21] was 112%. The cell viability [2, 22] was 107%, the cell viability [2, 23] was 106% and the cell viability [2, 24] was 105%. The cell viability [2, 25] was 105%, the cell viability [2, 26] was 102% and the cell viability [2, 27] was 99.5%. The cell viability [2, 28] was 98.5%, the cell viability [2, 29] was 89.6% and the cell viability [2, 30] was 97.4%. For the same compound, the cell viability [2, 31] was 103%, the cell viability [2, 32] was 108% and the cell viability [2, 33] was 103%. For the same compound, the cell viability [2, 34] was 102%, the cell viability [2, 35] was 103% and the cell viability [2, 36] was 100%. It also gave a cell viability [2, 37] of 107%, a cell viability [2, 38] of 104% and a cell viability [2, 39] of 102%. It also gave a cell viability [3, 7] of 90.4%, a cell viability [3, 8] of 82.4% and a cell viability [3, 9] of 99.7%. The cell viability [3, 10] was 103%, the cell viability [3, 11] was 61.4% and the cell viability [3, 12] was 97.7%. The cell viability [3, 13] was 109%, the cell viability [3, 14] was 115% and the cell viability [3, 15] was 109%. The cell viability [3, 16] was 114%, the cell viability [3, 17] was 101% and the cell viability [3, 18] was 96.1%. The cell viability [3, 19] was 93.3%, the cell viability [3, 20] was 101% and the cell viability [3, 21] was 121%. The cell viability [3, 22] was 96.6%, the cell viability [3, 23] was 97% and the cell viability [3, 24] was 109%. It also gave a cell viability [3, 25] of 115%, a cell viability [3, 26] of 117% and a cell viability [3, 27] of 113%. The cell viability [3, 28] was 104%, the cell viability [3, 29] was 99.8% and the cell viability [3, 30] was 88.9%. The cell viability [3, 31] was 106%, the cell viability [3, 32] was 115% and the cell viability [3, 33] was 102%. The cell viability [3, 34] was 103%, the cell viability [3, 35] was 108% and the cell viability [3, 36] was 119%. It also gave a cell viability [3, 37] of 109%, a cell viability [3, 38] of 109% and a cell viability [3, 39] of 112%. The “AUC of viability dose-response curve” value ([4]; HPLM + 10% dialyzed FBS) was 461, the “AUC of viability dose-response curve” value ([4]; RPMI 5 mM glucose + 10% FBS) was 454 and the “AUC of viability dose-response curve” value [4, 40] was 461. For the same compound, the “AUC of viability dose-response curve” value ([5]; HPLM + 10% dialyzed FBS) was 469, the “AUC of viability dose-response curve” value ([5]; RPMI 5 mM glucose + 10% FBS) was 465 and the “AUC of viability dose-response curve” value [5, 40] was 470. For the same compound, the “AUC of viability dose-response curve” value ([6]; HPLM + 10% dialyzed FBS) was 428, the “AUC of viability dose-response curve” value ([6]; RPMI 5 mM glucose + 10% FBS) was 455 and the “AUC of viability dose-response curve” value [6, 40] was 466.
